The results in this text go back to PubChem BioAssay AID1259407 (Chemical Carcinogenesis Research Information System (CCRIS), 2018).

The test system of this data set is CCRIS mutagenicity, Ames/micronucleus/aberration tests. Put plainly: CCRIS mutagenicity studies. An excerpt:
The CCRIS database contains chemical records with carcinogenicity, mutagenicity, tumor promotion, and tumor inhibition test results. It was developed by the National Cancer Institute (NCI). Data are derived from studies cited in primary journals, current awareness tools, NCI reports, and other sources. Test results have been reviewed by experts in carcinogenesis and mutagenesis.
CCRIS provides historical information from the years 1985 - 2011. It is no longer updated.
This is an archive assay for CCRIS mutagenicity studies.

Where [1] appears, read: Test System: AMES SALMONELLA TYPHIMURIUM, Strain/Indicator: TA98, Metabolic Activation: NONE, Method: PREINCUBATION
[2] abbreviates: Test System: AMES SALMONELLA TYPHIMURIUM, Strain/Indicator: TA100, Metabolic Activation: NONE, Method: PREINCUBATION

Calls of active or inactive are those of the source. No rule for the calls is given here.

Turning to `Cc1c(N)cccc1N`, the mutagenic call is “active; positive (structural changes)” (End Point: IN VITRO CHROMOSOMAL ABERRATIONS, Test System: CHINESE HAMSTER LUNG CELLS (CHL), Metabolic Activation: NONE); “active; positive (structural changes)” (End Point: IN VITRO CHROMOSOMAL ABERRATIONS, Test System: CHINESE HAMSTER LUNG CELLS (CHL), Metabolic Activation: RAT, LIVER, S-9, KC-400); “active; positive (structural changes)” (End Point: IN VITRO CHROMOSOMAL ABERRATIONS, Test System: CHINESE HAMSTER OVARY CELLS (CHO), Metabolic Activation: NONE); “inactive; negative” (End Point: IN VITRO CHROMOSOMAL ABERRATIONS, Test System: CHINESE HAMSTER OVARY CELLS (CHO), Metabolic Activation: RAT, LIVER, S-9, AROCLOR 1254); “inactive; negative” (End Point: IN VITRO CHROMOSOMAL ABERRATIONS, Test System: CHO CELLS, Metabolic Activation: RAT, LIVER, S-9, AROCLOR 1254); “active; positive” (Test System: AMES SALMONELLA TYPHIMURIUM, Strain/Indicator: TA97, Metabolic Activation: HAMSTER, LIVER, S-9, AROCLOR 1254 (10%), Method: PREINCUBATION). The mutagenic call is “inactive; negative” (Test System: AMES SALMONELLA TYPHIMURIUM, Strain/Indicator: TA97, Metabolic Activation: NONE, Method: PREINCUBATION); “inactive; negative” (Test System: AMES SALMONELLA TYPHIMURIUM, Strain/Indicator: TA97, Metabolic Activation: RAT, LIVER, S-9, AROCLOR 1254 (10%), Method: PREINCUBATION); “active; positive” (Test System: AMES SALMONELLA TYPHIMURIUM, Strain/Indicator: TA98, Metabolic Activation: HAMSTER, LIVER, S-9, AROCLOR 1254 (10%), Method: PREINCUBATION); “inactive; negative” under setting [1]; “active; positive” (Test System: AMES SALMONELLA TYPHIMURIUM, Strain/Indicator: TA98, Metabolic Activation: RAT, LIVER, S-9, AROCLOR 1254 (10%), Method: PREINCUBATION); “active; positive” (Test System: AMES SALMONELLA TYPHIMURIUM, Strain/Indicator: TA100, Metabolic Activation: HAMSTER, LIVER, S-9, AROCLOR 1254 (10%), Method: PREINCUBATION). Besides, the mutagenic call runs as follows: under setting [2], “inactive; negative”; (Test System: AMES SALMONELLA TYPHIMURIUM, Strain/Indicator: TA100, Metabolic Activation: RAT, LIVER, S-9, AROCLOR 1254 (10%), Method: PREINCUBATION) “active; positive”; (Test System: AMES SALMONELLA TYPHIMURIUM, Strain/Indicator: TA1535, Metabolic Activation: HAMSTER, LIVER, S-9, AROCLOR 1254 (10%), Method: PREINCUBATION) “active; positive”; (Test System: AMES SALMONELLA TYPHIMURIUM, Strain/Indicator: TA1535, Metabolic Activation: NONE, Method: PREINCUBATION) “inactive; negative”; (Test System: AMES SALMONELLA TYPHIMURIUM, Strain/Indicator: TA1535, Metabolic Activation: RAT, LIVER, S-9, AROCLOR 1254 (5, 10 OR 30%), Method: PREINCUBATION) “inactive; negative”.

As to `O=NN1C(C(=O)O)CSC1C(O)C(O)C(O)C(O)CO` (centres undefined), the mutagenic call runs as follows: under setting [1], “inactive; negative”; (Test System: AMES SALMONELLA TYPHIMURIUM, Strain/Indicator: TA98, Metabolic Activation: NONE, Method: STANDARD PLATE) “inactive; negative”; (Test System: AMES SALMONELLA TYPHIMURIUM, Strain/Indicator: TA98, Metabolic Activation: RAT, LIVER, S-9, AROCLOR 1254, Method: PREINCUBATION) “inactive; negative”; (Test System: AMES SALMONELLA TYPHIMURIUM, Strain/Indicator: TA98, Metabolic Activation: RAT, LIVER, S-9, AROCLOR 1254, Method: STANDARD PLATE) “inactive; negative”; under setting [2], “inactive; negative”; (Test System: AMES SALMONELLA TYPHIMURIUM, Strain/Indicator: TA100, Metabolic Activation: NONE, Method: STANDARD PLATE) “inactive; negative”. Moreover, the mutagenic call runs as follows: (Test System: AMES SALMONELLA TYPHIMURIUM, Strain/Indicator: TA100, Metabolic Activation: RAT, LIVER, S-9, AROCLOR 1254, Method: PREINCUBATION) “inactive; negative”; (Test System: AMES SALMONELLA TYPHIMURIUM, Strain/Indicator: TA100, Metabolic Activation: RAT, LIVER, S-9, AROCLOR 1254, Method: STANDARD PLATE) “inactive; negative”.

With `CCOc1cccc2cccnc12`, the mutagenic call (Test System: AMES SALMONELLA TYPHIMURIUM, Strain/Indicator: TA100, Metabolic Activation: S-9, Method: PREINCUBATION) is “inactive; negative”.

Turning to `OC[C@H]1O[C@@H](OC2[C@@H](CO)O[C@H](O)[C@H](O)[C@H]2O)[C@H](O)[C@@H](O)C1O[C@@H]1O[C@H](CO)[C@@H](O)[C@H](O)[C@H]1O` (some centres undefined), the mutagenic call was “inactive; negative” (End Point: IN VIVO CHROMOSOMAL ABERRATIONS, Test System: BONE MARROW CELLS, Species: MOUSE, Strain/Sex: CD-1, MALE, Route: IP) and “inactive; negative” (End Point: IN VIVO CHROMOSOMAL ABERRATIONS, Test System: SPERMATOGONIAL CELLS, Species: MOUSE, Strain/Sex: CD-1, MALE, Route: IP).

With `COc1cc(-c2ccc(N/N=C3\C(=O)c4ccc(N)cc4C=C3S(=O)(=O)O)c(OC)c2)ccc1N/N=C1/C=C(S(=O)(=O)O)c2ccccc2C1=O`, under “Test System: AMES SALMONELLA TYPHIMURIUM, Strain/Indicator: TA98, Metabolic Activation: HAMSTER, LIVER, S-9, Method: PREINCUBATION (PRIVAL METHOD)”, the mutagenic call was “active; positive”.
